Tests used:
Experiment in all cases: biochemical
[1] = target: T1, panel of 374 wild-type kinases (Homo sapiens, UniProt O14920); conditions: read-out: % Enzyme Activity (relative to DMSO controls), IKKb/IKBKB
T1 construct: purchased Reaction Biology Corporation
T1 sequence (O14920 1-756): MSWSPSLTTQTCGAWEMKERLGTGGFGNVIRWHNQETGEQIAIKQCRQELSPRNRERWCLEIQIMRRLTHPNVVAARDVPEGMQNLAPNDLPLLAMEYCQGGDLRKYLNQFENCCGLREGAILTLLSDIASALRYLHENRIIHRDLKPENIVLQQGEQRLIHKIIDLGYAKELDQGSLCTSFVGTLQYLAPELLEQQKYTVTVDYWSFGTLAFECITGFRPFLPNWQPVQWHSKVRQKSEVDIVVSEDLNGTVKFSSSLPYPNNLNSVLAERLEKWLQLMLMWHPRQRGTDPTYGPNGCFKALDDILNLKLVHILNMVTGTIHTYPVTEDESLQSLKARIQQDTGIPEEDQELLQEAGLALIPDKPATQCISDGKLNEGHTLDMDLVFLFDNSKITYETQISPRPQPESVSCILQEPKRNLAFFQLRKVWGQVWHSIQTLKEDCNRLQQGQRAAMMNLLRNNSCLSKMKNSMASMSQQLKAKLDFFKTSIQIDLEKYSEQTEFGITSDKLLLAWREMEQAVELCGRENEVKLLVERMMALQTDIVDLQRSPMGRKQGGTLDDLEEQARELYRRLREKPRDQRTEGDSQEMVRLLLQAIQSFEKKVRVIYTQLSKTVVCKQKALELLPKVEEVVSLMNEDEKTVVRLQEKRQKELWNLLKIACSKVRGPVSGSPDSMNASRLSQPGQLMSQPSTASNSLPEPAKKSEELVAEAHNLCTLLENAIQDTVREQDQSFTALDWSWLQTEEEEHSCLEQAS

[2] = target: T2, panel of 374 wild-type kinases (Homo sapiens, UniProt Q13153); conditions: read-out: % Enzyme Activity (relative to DMSO controls), kinase PAK1
T2 construct: purchased Reaction Biology Corporation
T2 sequence (Q13153 whole entry): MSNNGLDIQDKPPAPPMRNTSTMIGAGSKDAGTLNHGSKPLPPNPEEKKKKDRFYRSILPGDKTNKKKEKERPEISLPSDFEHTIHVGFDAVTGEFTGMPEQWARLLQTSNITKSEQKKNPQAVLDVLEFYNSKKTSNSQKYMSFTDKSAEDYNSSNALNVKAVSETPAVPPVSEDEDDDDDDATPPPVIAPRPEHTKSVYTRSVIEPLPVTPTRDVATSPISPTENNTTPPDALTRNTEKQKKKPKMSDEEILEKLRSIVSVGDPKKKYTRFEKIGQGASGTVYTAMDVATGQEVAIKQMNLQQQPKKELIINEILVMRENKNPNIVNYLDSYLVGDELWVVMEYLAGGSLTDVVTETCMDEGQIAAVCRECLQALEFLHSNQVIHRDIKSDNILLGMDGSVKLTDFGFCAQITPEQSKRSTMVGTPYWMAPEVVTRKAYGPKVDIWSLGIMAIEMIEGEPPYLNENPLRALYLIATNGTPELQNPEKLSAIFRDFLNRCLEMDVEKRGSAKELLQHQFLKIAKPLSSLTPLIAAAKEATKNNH

[3] = target: T3, panel of 374 wild-type kinases (Homo sapiens, UniProt Q14164); conditions: read-out: % Enzyme Activity (relative to DMSO controls), IKKe/IKBKE
T3 construct: purchased Reaction Biology Corporation
T3 sequence (Q14164 1-716): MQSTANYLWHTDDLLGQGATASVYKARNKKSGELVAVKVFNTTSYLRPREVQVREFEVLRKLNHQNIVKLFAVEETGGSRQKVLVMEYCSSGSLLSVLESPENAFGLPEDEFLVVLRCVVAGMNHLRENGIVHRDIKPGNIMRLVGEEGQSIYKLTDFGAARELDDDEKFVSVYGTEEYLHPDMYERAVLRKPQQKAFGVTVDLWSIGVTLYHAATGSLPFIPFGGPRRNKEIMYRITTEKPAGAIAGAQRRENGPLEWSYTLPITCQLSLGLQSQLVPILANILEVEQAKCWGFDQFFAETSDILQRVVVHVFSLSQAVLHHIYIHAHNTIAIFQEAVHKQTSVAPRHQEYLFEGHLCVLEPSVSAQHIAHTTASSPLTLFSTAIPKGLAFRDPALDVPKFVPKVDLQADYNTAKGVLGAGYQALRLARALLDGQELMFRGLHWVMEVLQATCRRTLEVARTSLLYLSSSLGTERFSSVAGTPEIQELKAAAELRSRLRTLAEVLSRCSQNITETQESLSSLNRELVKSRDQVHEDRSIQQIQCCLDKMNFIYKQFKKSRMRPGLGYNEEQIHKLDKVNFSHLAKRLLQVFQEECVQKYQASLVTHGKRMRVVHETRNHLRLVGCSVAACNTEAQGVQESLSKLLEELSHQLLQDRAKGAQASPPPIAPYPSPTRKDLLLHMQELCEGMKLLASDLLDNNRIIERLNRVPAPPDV

[4] = target: T4, panel of 374 wild-type kinases (Homo sapiens, UniProt Q15208); conditions: read-out: % Enzyme Activity (relative to DMSO controls), kinase STK38/NDR1
T4 construct: purchased Reaction Biology Corporation
T4 sequence (Q15208 whole entry): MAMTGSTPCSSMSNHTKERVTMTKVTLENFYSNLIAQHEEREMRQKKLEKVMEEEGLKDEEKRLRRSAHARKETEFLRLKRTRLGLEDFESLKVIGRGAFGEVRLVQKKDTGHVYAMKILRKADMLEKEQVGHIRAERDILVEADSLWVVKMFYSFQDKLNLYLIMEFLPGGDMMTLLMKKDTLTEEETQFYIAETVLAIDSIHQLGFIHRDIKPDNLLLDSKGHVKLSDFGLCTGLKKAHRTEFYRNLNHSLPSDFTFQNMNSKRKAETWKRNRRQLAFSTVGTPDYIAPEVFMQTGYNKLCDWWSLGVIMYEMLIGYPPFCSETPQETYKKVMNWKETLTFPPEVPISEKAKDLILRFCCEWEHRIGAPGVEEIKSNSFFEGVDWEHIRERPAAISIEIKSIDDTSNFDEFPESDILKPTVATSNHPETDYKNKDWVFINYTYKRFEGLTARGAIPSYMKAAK

[5] = target: T5, panel of 374 wild-type kinases (Homo sapiens, UniProt Q5S007); conditions: read-out: % Enzyme Activity (relative to DMSO controls), LRRK2
T5 construct: purchased Reaction Biology Corporation
T5 sequence (Q5S007 whole entry): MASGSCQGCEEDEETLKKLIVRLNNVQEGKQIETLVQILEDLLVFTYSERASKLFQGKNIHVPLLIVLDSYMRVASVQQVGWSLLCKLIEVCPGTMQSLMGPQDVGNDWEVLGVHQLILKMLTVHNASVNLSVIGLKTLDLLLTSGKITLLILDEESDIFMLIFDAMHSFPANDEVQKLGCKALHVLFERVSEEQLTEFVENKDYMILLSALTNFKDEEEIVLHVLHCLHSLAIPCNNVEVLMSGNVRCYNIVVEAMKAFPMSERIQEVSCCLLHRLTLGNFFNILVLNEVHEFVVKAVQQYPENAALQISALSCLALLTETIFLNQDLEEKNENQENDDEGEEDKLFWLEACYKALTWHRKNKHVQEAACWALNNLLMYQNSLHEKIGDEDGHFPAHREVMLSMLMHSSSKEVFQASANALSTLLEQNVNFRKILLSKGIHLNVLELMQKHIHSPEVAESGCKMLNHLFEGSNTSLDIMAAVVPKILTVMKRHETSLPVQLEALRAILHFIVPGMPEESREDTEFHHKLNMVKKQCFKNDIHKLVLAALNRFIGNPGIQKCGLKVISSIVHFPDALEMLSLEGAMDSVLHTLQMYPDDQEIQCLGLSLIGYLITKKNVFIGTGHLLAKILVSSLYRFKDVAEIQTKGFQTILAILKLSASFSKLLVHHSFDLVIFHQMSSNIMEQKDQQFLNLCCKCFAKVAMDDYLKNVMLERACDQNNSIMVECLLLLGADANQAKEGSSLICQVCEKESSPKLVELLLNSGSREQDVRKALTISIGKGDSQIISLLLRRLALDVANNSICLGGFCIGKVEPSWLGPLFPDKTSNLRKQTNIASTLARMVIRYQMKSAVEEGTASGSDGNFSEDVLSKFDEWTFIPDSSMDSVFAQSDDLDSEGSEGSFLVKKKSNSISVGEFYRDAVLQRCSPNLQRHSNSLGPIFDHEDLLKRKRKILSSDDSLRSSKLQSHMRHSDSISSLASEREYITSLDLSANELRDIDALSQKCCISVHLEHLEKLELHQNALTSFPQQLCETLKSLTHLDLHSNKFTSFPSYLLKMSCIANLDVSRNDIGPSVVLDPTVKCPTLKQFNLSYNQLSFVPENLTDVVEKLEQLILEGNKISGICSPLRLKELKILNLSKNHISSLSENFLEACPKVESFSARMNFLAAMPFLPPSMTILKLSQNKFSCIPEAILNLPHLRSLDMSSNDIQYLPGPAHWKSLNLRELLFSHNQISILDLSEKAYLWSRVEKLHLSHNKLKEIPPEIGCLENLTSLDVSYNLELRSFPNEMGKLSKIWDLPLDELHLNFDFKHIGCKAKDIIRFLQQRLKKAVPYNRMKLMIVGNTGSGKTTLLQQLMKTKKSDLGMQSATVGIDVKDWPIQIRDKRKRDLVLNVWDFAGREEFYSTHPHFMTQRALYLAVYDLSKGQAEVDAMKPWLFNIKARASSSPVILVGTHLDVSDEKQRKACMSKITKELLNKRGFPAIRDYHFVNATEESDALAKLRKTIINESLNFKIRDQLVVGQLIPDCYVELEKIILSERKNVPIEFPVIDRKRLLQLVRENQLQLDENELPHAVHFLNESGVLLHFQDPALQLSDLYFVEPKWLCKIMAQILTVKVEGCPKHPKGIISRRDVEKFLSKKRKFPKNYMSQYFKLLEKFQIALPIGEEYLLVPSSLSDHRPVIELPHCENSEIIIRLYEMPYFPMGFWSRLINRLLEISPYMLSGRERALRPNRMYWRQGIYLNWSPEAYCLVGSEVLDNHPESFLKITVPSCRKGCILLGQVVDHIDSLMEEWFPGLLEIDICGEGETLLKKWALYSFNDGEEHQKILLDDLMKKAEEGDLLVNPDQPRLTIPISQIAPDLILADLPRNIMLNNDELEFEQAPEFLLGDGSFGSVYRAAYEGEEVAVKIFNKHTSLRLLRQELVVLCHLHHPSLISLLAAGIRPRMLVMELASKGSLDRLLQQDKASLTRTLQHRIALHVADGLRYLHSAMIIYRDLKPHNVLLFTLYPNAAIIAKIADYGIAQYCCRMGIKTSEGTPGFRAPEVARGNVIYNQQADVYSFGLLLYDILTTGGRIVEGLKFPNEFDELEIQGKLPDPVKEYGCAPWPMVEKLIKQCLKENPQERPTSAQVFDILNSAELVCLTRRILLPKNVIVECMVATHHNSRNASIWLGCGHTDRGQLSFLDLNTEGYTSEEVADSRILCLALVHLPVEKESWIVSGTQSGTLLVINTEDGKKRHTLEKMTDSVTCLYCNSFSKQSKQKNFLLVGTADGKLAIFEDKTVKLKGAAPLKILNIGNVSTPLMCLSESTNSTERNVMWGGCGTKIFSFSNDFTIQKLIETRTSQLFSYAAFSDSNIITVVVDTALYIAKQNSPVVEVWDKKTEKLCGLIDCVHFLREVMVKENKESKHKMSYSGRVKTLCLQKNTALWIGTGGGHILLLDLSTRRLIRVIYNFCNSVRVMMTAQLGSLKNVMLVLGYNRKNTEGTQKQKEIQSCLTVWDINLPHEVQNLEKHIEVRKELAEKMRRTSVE

[6] = target: T6, panel of 374 wild-type kinases (Homo sapiens, UniProt Q86Z02); conditions: read-out: % Enzyme Activity (relative to DMSO controls), HIPK1
T6 construct: purchased Reaction Biology Corporation

[7] = target: T7, panel of 374 wild-type kinases (Homo sapiens, UniProt Q92918); conditions: read-out: % Enzyme Activity (relative to DMSO controls), HPK1/MAP4K1
T7 construct: purchased Reaction Biology Corporation
T7 sequence (Q92918 whole entry): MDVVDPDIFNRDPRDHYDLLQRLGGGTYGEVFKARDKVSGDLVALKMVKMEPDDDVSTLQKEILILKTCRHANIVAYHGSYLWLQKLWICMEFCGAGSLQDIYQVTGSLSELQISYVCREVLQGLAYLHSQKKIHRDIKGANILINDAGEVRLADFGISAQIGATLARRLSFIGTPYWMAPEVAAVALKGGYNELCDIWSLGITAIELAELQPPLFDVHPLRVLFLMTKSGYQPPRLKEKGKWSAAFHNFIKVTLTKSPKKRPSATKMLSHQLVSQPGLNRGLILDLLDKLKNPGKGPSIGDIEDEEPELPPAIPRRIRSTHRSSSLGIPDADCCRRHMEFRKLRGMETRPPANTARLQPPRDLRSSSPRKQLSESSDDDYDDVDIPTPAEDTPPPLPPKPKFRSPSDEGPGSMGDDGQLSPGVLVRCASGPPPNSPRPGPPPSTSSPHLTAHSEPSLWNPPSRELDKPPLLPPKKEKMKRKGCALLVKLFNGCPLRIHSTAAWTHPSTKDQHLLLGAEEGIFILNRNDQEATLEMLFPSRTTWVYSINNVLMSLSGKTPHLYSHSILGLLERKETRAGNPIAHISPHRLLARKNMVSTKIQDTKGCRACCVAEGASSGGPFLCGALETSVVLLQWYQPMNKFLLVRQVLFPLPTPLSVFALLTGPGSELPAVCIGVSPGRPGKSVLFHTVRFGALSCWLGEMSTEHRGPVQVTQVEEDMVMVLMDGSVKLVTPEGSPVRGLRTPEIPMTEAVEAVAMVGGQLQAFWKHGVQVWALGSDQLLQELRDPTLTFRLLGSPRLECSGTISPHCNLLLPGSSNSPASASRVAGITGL

[8] = target: T8, panel of 374 wild-type kinases (Homo sapiens, UniProt Q96GX5); conditions: MASTL, read-out: % Enzyme Activity (relative to DMSO controls)
T8 construct: purchased Reaction Biology Corporation
T8 sequence (Q96GX5 1-879): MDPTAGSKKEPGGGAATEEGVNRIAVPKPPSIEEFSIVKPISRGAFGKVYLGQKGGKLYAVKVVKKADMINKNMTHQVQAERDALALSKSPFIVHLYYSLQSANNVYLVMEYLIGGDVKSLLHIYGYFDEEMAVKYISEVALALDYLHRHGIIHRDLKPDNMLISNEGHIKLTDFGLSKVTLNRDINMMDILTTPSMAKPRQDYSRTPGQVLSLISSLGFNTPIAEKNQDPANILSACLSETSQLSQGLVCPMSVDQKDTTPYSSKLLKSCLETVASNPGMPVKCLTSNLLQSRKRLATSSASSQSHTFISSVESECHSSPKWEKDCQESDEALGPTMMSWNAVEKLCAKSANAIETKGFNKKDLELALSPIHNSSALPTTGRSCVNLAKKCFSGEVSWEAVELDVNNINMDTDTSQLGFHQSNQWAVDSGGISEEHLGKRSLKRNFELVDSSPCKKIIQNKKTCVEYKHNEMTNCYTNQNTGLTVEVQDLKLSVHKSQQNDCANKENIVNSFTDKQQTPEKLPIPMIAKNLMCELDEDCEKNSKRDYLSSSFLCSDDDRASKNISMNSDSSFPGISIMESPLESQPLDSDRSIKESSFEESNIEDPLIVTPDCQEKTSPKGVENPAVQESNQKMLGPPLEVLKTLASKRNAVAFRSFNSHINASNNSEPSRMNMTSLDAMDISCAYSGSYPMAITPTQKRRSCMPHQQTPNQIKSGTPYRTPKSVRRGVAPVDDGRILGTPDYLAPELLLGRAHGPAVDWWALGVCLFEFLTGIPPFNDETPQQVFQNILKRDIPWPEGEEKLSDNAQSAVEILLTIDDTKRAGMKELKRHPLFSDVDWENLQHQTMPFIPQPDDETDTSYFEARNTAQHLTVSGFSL

SMILES | remaining activity at 5 µM [1] [%] | remaining activity at 5 µM [2] [%] | remaining activity at 5 µM [3] [%] | remaining activity at 5 µM [4] [%] | remaining activity at 5 µM [5] [%] | remaining activity at 5 µM [6] [%] | remaining activity at 5 µM [7] [%] | remaining activity at 5 µM [8] [%] | remaining activity at 10 µM ([1]; 10 uM) [%] | remaining activity at 10 µM ([2]; 10 uM) [%] | remaining activity at 10 µM ([3]; 10 uM) [%] | remaining activity at 10 µM ([4]; 10 uM) [%] | remaining activity at 10 µM ([5]; 10 uM) [%] | remaining activity at 10 µM ([6]; 10 uM) [%] | remaining activity at 10 µM ([7]; 10 uM) [%] | remaining activity at 10 µM ([8]; 10 uM) [%]
O=C(Nc1cnn(-c2csc(C(=O)NC3COC3)c2)c1)Nc1c(F)cccc1Cl [Compound 25, 4-(4-(3-(2-chloro-6-fluorophenyl)ureido)-1H-pyrazol-1-yl)-N-(oxetan-3-yl)thiophene-2-carboxamide] | 94.7 | 81.2 | 96.8 | 95.5 | 91.3 | 91.7 | 92.7 | 93.7 |  |  |  |  |  |  |  | 
O=C(Nc1cnn(-c2csc(C(=O)NC3COC3)c2)c1)Nc1ccccc1Cl [Compound 17, 4-(4-(3-(2-chlorophenyl)ureido)-1H-pyrazol-1-yl)-N-(oxetan-3-yl)thiophene-2-carboxamide] | 95.6 | 106 | 110 | 99.2 | 88.2 | 96.3 | 132 | 96.7 |  |  |  |  |  |  |  | 
Cc1sc(C(=O)NC2COC2)cc1-n1cc(NC(=O)Nc2c(F)cccc2Cl)cn1 [Compound 27, 4-(4-(3-(2-chloro-6-fluorophenyl)ureido)-1H-pyrazol-1-yl)-5-methyl-N-(oxetan-3-yl)thiophene-2-carboxamide] |  |  |  |  |  |  |  |  | 86.8 | 104 | 116 | 91.5 | 101 | 116 | 99.2 | 110

From patent US20240246942A1, “KINASE INHIBITORS FOR THE TREATMENT OF NEURODEGENERATIVE DISEASES” (priority 2020, published 2024)
